Test results: ChEMBL document CHEMBL1201862, “PubChem BioAssay data set” (2004)
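Results reflect a 48-hour exposure of cells in 96-well plates to compound at five concentrations. GI50 is the concentration that inhibits growth by half.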 Active and inactive are the calls of the source. Rule as the data show it: active = GI50 up to about 1.1 µM and inactive = higher. Where a SMILES comes first, the peptide text is derived from it. Non-standard residues stand in square brackets, D forms with d. Residues, ends and D or L forms follow the SMILES beside them. The star is where a group is joined. *: point of attachment. Benzoyl(4-OMe) = COc1ccc(C(=O)*)cc1; 2Thi = N[CH](Cc1cccs1)C(=O)O; Cbz = O=C(OCc1ccccc1)*

Key:
Experiment in all cases: growth of human tumour cells (NCI), 48 h
[1] = system: HCC 2998
[2] = system: HL-60
[3] = system: HT-29
[4] = system: M14
[5] = system: MCF7
[6] = system: MOLT-4
[7] = system: NCI-H226
[8] = system: OVCAR-3
[9] = system: PC-3
[10] = system: RPMI-8226
[11] = system: SF-268
[12] = system: SF-295
[13] = system: SK-MEL-28
[14] = system: SN12C
[15] = system: SNB-19
[16] = system: U-251
[17] = system: UO-31
[18] = system: CAKI-1
[19] = system: LOX IMVI
[20] = system: SK-MEL-2

Measured: GI50

COc1cc(COC(=O)N2CC=CC2C(=O)O)c([N+](=O)[O-])cc1OC (stereo not drawn)
inactive: [1] > 100 µM | [2] > 100 µM | [3] > 100 µM | [4] > 100 µM | [5] > 100 µM | [6] > 100 µM | [7] > 100 µM | [8] > 100 µM | [9] > 100 µM | [10] > 100 µM | [11] > 100 µM | [12] > 100 µM | [13] > 100 µM | [14] > 100 µM | [15] > 100 µM | [16] > 100 µM | [17] > 100 µM

C[C@@H]1OC(=O)C[C@H]2CC(=O)N(CCC3CN(S(=O)(=O)C(F)(F)F)c4ccc(Cc5ccc6c(c5)C(CCN5C[C@H]7[C@@H](CC(=O)O[C@H]7C)CC5=O)CN6S(=O)(=O)C(F)(F)F)cc43)C[C@@H]21 (stereo partly drawn)
inactive: [18] > 100 µM | [1] > 100 µM | [19] > 100 µM | [4] > 100 µM | [5] > 100 µM | [6] > 100 µM | [7] > 100 µM | [8] > 100 µM | [9] > 100 µM | [10] > 100 µM | [11] > 100 µM | [12] > 100 µM | [13] > 100 µM | [20] > 100 µM | [15] > 100 µM | [16] > 100 µM | [17] > 100 µM

N#CCSc1c(-c2ccccc2)c(=O)n(-c2ccccc2)c(=S)n1-c1ccccc1
inactive: [18] > 100 µM | [2] > 100 µM | [3] > 100 µM | [19] > 100 µM | [4] > 100 µM | [5] > 100 µM | [6] > 100 µM | [7] > 100 µM | [8] > 100 µM | [9] > 100 µM | [10] > 100 µM | [11] > 100 µM | [12] > 100 µM | [13] > 100 µM | [20] > 100 µM | [14] > 100 µM | [15] > 100 µM | [16] > 100 µM | [17] > 100 µM

CS(=O)(=O)O[C@H]1CN2C[C@@H](O)[C@@H](O)[C@H]2[C@H]1CO.[B]
inactive: [18] > 100 µM | [1] > 100 µM | [3] > 100 µM | [19] > 100 µM | [4] > 100 µM | [5] > 100 µM | [6] > 100 µM | [7] > 100 µM | [8] > 100 µM | [9] > 100 µM | [10] > 100 µM | [11] > 100 µM | [12] > 100 µM | [13] > 100 µM | [20] > 100 µM | [15] > 100 µM | [16] > 100 µM | [17] > 100 µM

CCOC(=O)[C@@H]1OC(c2ccccc2)O[C@H]1C(=O)OCC
inactive: [3] > 100 µM | [19] > 100 µM | [4] > 100 µM | [5] > 100 µM | [6] > 100 µM | [7] > 100 µM | [8] > 100 µM | [9] > 100 µM | [10] > 100 µM | [11] > 100 µM | [12] > 100 µM | [13] > 100 µM | [20] > 100 µM | [14] > 100 µM | [15] > 100 µM | [16] > 100 µM | [17] > 100 µM

CC(C)(C)c1cc(/C=C/C(=O)CC(=O)/C=C/c2cc(C(C)(C)C)c(O)c(C(C)(C)C)c2)cc(C(C)(C)C)c1O
inactive: [2] > 50 µM | [3] > 50 µM | [19] > 50 µM | [4] > 50 µM | [5] > 50 µM | [7] > 50 µM | [8] > 50 µM | [9] > 50 µM | [10] > 50 µM | [11] > 50 µM | [12] > 50 µM | [13] > 50 µM | [20] > 50 µM | [14] > 50 µM | [15] > 50 µM | [16] > 50 µM | [17] > 50 µM

N#CC(=S)Nc1ccc(Cl)c(Cl)c1
inactive: [18] 29.8 µM | [1] 18.7 µM | [3] 21.1 µM | [19] 26.6 µM | [4] 24.6 µM | [5] 35.5 µM | [6] 17.3 µM | [7] 22.4 µM | [8] 20.5 µM | [9] 23.9 µM | [10] 3.2 µM | [11] 37.4 µM | [12] 22.5 µM | [13] 30.3 µM | [20] 27.7 µM | [14] 30.5 µM | [15] 43.8 µM | [16] 23.2 µM

CCOC(=O)CCC(NC(=O)CNC(=O)CNC(=O)C(CCC(=O)OCC)NC(=O)C(CCC(=O)OCC)NC(=O)C(CCC(=O)OCC)NC(=O)OCc1ccccc1)C(=O)NC(CCC(=O)OCC)C(=O)NC(CCC(=O)OCC)C(=O)OCC (stereo not drawn) (Cbz-E(OEt)E(OEt)E(OEt)GGE(OEt)E(OEt)E(OEt)-OEt; configuration not given here)
inactive: [18] > 75 µM | [3] > 75 µM | [19] > 75 µM | [4] > 75 µM | [5] > 75 µM | [6] > 75 µM | [9] > 75 µM | [10] > 75 µM | [11] > 75 µM | [12] > 75 µM | [13] > 75 µM | [20] > 75 µM | [14] > 75 µM | [15] > 75 µM | [16] > 75 µM | [17] > 75 µM

O=c1oc2cc(/N=C/c3ccc4c(c3)OCO4)ccc2c2ccccc12
inactive: [18] 65 µM | [2] > 100 µM | [3] 50.9 µM | [19] 79.8 µM | [4] > 100 µM | [5] 54.5 µM | [6] 33.3 µM | [7] > 100 µM | [8] > 100 µM | [9] > 100 µM | [11] 61 µM | [12] 58.6 µM | [13] > 100 µM | [20] 92.9 µM | [14] 51.9 µM | [15] 50.2 µM | [16] 43.1 µM | [17] 70 µM

CC(C)(C)c1cc(C(=O)C2Cc3ccccc3C(=O)O2)cc(C(C)(C)C)c1O (stereo not drawn)
inactive: [18] 19.3 µM | [2] 4.88 µM | [3] 14.4 µM | [19] 11.9 µM | [4] 12.6 µM | [5] 12.5 µM | [6] 8.55 µM | [7] 17.9 µM | [8] 12.2 µM | [9] 11.7 µM | [10] 5.93 µM | [11] 14.5 µM | [12] 14.1 µM | [13] 15.8 µM | [20] 10.9 µM | [14] 11.5 µM | [15] 11.8 µM | [16] 10.5 µM | [17] 11.2 µM

CCC(C)C(NC(=O)C(Cc1cccs1)NC(=O)C(CC(C)C)NC(=O)C(CC(C)C)NC(=O)C(CCCCN)NC(=O)C(CCCNC(=N)N)NC(=O)c1ccc(OC)cc1)C(=O)NC(CC(C)C)C(N)=O (stereo not drawn) ({Benzoyl(4-OMe)}-RKLL[2Thi]IL-NH2; configuration not given here)
inactive: [18] > 100 µM | [1] > 100 µM | [3] > 100 µM | [19] > 100 µM | [4] > 100 µM | [5] > 100 µM | [6] > 100 µM | [7] > 100 µM | [8] > 100 µM | [9] > 100 µM | [10] > 100 µM | [11] > 100 µM | [12] > 100 µM | [13] > 100 µM | [14] > 100 µM | [15] > 100 µM | [16] > 100 µM | [17] > 100 µM

O=C1C(/C=N/CCc2c[nH]c3ccccc23)C(C(F)(F)F)=NN1c1nc2ccccc2s1 (stereo not drawn)
inactive: [18] 37.2 µM | [2] 19.8 µM | [3] 27.5 µM | [19] 27.9 µM | [4] 30.7 µM | [5] 23 µM | [6] 21.1 µM | [7] 26.4 µM | [8] 20.7 µM | [9] 31 µM | [10] 22.2 µM | [11] 50.5 µM | [12] 24 µM | [13] 33.3 µM | [20] 28.8 µM | [14] 37.6 µM | [15] 36.5 µM | [16] 34.8 µM | [17] 31.3 µM

COC(=O)/C=C(\C)C(=O)N(C)c1ccccc1I
inactive: [18] 72.1 µM | [1] > 100 µM | [19] > 100 µM | [4] > 100 µM | [5] > 100 µM | [6] > 100 µM | [7] > 100 µM | [8] > 100 µM | [9] > 100 µM | [10] > 100 µM | [11] > 100 µM | [12] > 100 µM | [13] > 100 µM | [20] > 100 µM | [14] > 100 µM | [15] > 100 µM | [16] > 100 µM | [17] > 100 µM

Cc1ccc(/C=C2\NC(=S)N(CN3CCCCC3)C2=O)cc1
inactive: [3] 24.2 µM | [19] 34.4 µM | [4] 55.1 µM | [5] 28.4 µM | [6] 93.3 µM | [7] 55.7 µM | [8] 65.3 µM | [9] 61.4 µM | [10] 32.2 µM | [11] 64 µM | [12] 44.6 µM | [13] 79.3 µM | [20] > 100 µM | [14] 63.7 µM | [15] 55.5 µM | [16] 48.6 µM | [17] 63.1 µM
